From PubChem BioAssay (NCI)
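Compound exposure: 48 hours, 5 concentrations, 96-well plates. TGI marks complete inhibition of growth.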

Experiments:
Assay in all cases: NCI tumour cell line growth inhibition, 48 h
[1] = tested on: OVCAR-5 ovarian
[2] = tested on: IGROV1 ovarian
[3] = tested on: A549 NSCLC
[4] = tested on: U251 CNS
[5] = tested on: SK-OV-3 ovarian
[6] = tested on: OVCAR-3 ovarian
[7] = tested on: MDA-MB-435
[8] = tested on: MDA-MB-231 breast
[9] = tested on: TK-10 renal
[10] = tested on: SF-295 CNS
[11] = tested on: NCI-H23 lung
[12] = tested on: KM12 colon
[13] = tested on: MDA-N
[14] = tested on: PC-3 prostate
[15] = tested on: NCI-H522 lung
[16] = tested on: UACC-257 melanoma
[17] = tested on: UACC-62 melanoma
[18] = tested on: HS 578T breast
[19] = tested on: MALME-3M melanoma
[20] = tested on: HCT-15 colon
[21] = tested on: SR leukemia
[22] = tested on: EKVX NSCLC
[23] = tested on: SF-268 CNS
[24] = tested on: HT29 colon
[25] = tested on: HCC-2998 colon
[26] = tested on: LOX IMVI melanoma
[27] = tested on: 786-0 renal
[28] = tested on: K-562 leukemia
[29] = tested on: SNB-19 CNS
[30] = tested on: SK-MEL-5 melanoma
[31] = tested on: HL-60(TB) leukemia
[32] = tested on: SNB-75 CNS
[33] = tested on: OVCAR-4 ovarian
[34] = tested on: HOP-62 NSCLC
[35] = tested on: SN12C renal
[36] = tested on: HCT-116 colon
[37] = tested on: SK-MEL-28 melanoma
[38] = tested on: A498 renal
[39] = tested on: NCI-H460 lung
[40] = tested on: HOP-92 NSCLC
[41] = tested on: BT-549 breast
[42] = tested on: NCI/ADR-RES ovarian
[43] = tested on: DU-145 prostate
[44] = tested on: SK-MEL-2 melanoma
[45] = tested on: M14 melanoma
[46] = tested on: OVCAR-8 ovarian
[47] = tested on: COLO 205 colon
[48] = tested on: CCRF-CEM leukemia
[49] = tested on: RPMI-8226 leukemia
[50] = tested on: NCI-H226 lung
[51] = tested on: MOLT-4 leukemia
[52] = tested on: T-47D breast
[53] = tested on: UO-31 renal
[54] = tested on: RXF 393 renal
[55] = tested on: ACHN renal
[56] = tested on: SW-620 colon
[57] = tested on: SF-539 CNS
[58] = tested on: CAKI-1 renal
[59] = tested on: MCF7 breast

For `COC(=O)c1cc2c3c(c1)Oc1cc(C(=O)OC)cc4c1C3c1c(cc(C(=O)OC)cc1O4)O2`, which TGI [1] is on record?
The TGI was > 66.1 µM.

And the TGI [2]?
Its TGI is 26.5 µM.

And the TGI [3]?
Its TGI is > 48.3 µM.

What about the TGI [4] of the same molecule?
Its TGI is 41.8 µM.

And the TGI [5]?
Its TGI is 42.4 µM.

What about the TGI [6] of the same molecule?
Its TGI is 33 µM.

What about the TGI [7] of the same molecule?
Its TGI is > 100 µM.

And the TGI [8]?
The TGI was > 100 µM.

What about the TGI [9] of the same molecule?
Its TGI is > 56.9 µM.

And the TGI [10]?
Its TGI is 26.4 µM.

And the TGI [11]?
Its TGI is > 72 µM.

What about the TGI [12] of the same molecule?
Its TGI is > 49.7 µM.

And the TGI [13]?
The TGI was > 100 µM.

And the TGI [14]?
Its TGI is > 53.6 µM.

And the TGI [15]?
The TGI was 15.5 µM.

What about the TGI [16] of the same molecule?
The TGI was > 100 µM.

And the TGI [17]?
The TGI was > 75.5 µM.

What about the TGI [18] of the same molecule?
Its TGI is 41.1 µM.

And the TGI [19]?
The TGI was 37.2 µM.

What about the TGI [20] of the same molecule?
The TGI was > 100 µM.

What about the TGI [21] of the same molecule?
Its TGI is > 100 µM.

And the TGI [22]?
The TGI was 46.4 µM.

And the TGI [23]?
Its TGI is 30 µM.

And the TGI [24]?
Its TGI is 38.3 µM.

What about the TGI [25] of the same molecule?
Its TGI is > 100 µM.

And the TGI [26]?
Its TGI is > 46.1 µM.

And the TGI [27]?
The TGI was 23 µM.

What about the TGI [28] of the same molecule?
Its TGI is > 100 µM.

What about the TGI [29] of the same molecule?
Its TGI is > 62.9 µM.

What about the TGI [30] of the same molecule?
The TGI was 14.3 µM.

And the TGI [31]?
The TGI was > 29.3 µM.

And the TGI [32]?
Its TGI is 20 µM.

What about the TGI [33] of the same molecule?
Its TGI is > 100 µM.

What about the TGI [34] of the same molecule?
The TGI was 23.5 µM.

What about the TGI [35] of the same molecule?
Its TGI is > 100 µM.

What about the TGI [36] of the same molecule?
The TGI was > 100 µM.

What about the TGI [37] of the same molecule?
The TGI was > 100 µM.

And the TGI [38]?
The TGI was > 94.6 µM.

And the TGI [39]?
Its TGI is > 100 µM.

What about the TGI [40] of the same molecule?
Its TGI is > 31.6 µM.

What about the TGI [41] of the same molecule?
The TGI was > 100 µM.

And the TGI [42]?
Its TGI is 13 µM.

And the TGI [43]?
Its TGI is > 41.3 µM.

What about the TGI [44] of the same molecule?
Its TGI is > 100 µM.

What about the TGI [45] of the same molecule?
Its TGI is > 95.7 µM.

And the TGI [46]?
Its TGI is 17.1 µM.

What about the TGI [47] of the same molecule?
Its TGI is > 91.5 µM.

And the TGI [48]?
The TGI was 96.9 µM.

What about the TGI [49] of the same molecule?
Its TGI is > 100 µM.

What about the TGI [50] of the same molecule?
The TGI was 13.6 µM.

What about the TGI [51] of the same molecule?
Its TGI is > 100 µM.

And the TGI [52]?
The TGI was > 100 µM.

And the TGI [53]?
Its TGI is > 100 µM.

And the TGI [54]?
The TGI was 16.5 µM.

What about the TGI [55] of the same molecule?
The TGI was 26.2 µM.

And the TGI [56]?
Its TGI is > 100 µM.

And the TGI [57]?
Its TGI is 33 µM.

And the TGI [58]?
The TGI was 27.8 µM.

What about the TGI [59] of the same molecule?
The TGI was > 56.3 µM.

Which TGI [1] does the source give for `COC(=O)CC1C(C)(C)C(=O)C2CC3=C4CC(=O)OC(c5ccoc5)C4(C)CCC3C1(C)C2=O` (configuration not stated) here?
The TGI was > 100 µM.

What about the TGI [2] of the same molecule?
The TGI was > 100 µM.

What about the TGI [3] of the same molecule?
Its TGI is > 100 µM.

And the TGI [4]?
The TGI was > 100 µM.

What about the TGI [5] of the same molecule?
Its TGI is > 100 µM.

What about the TGI [6] of the same molecule?
The TGI was > 100 µM.

What about the TGI [7] of the same molecule?
The TGI was > 100 µM.

What about the TGI [8] of the same molecule?
Its TGI is > 100 µM.

And the TGI [9]?
The TGI was > 100 µM.

And the TGI [10]?
Its TGI is > 100 µM.

And the TGI [11]?
Its TGI is > 100 µM.

And the TGI [12]?
Its TGI is > 100 µM.

What about the TGI [13] of the same molecule?
The TGI was > 100 µM.

What about the TGI [14] of the same molecule?
The TGI was > 100 µM.

And the TGI [15]?
The TGI was > 100 µM.

And the TGI [16]?
Its TGI is > 100 µM.

What about the TGI [17] of the same molecule?
Its TGI is > 100 µM.

What about the TGI [18] of the same molecule?
Its TGI is > 100 µM.

What about the TGI [19] of the same molecule?
The TGI was > 100 µM.

And the TGI [20]?
Its TGI is > 100 µM.

What about the TGI [21] of the same molecule?
The TGI was > 100 µM.

What about the TGI [22] of the same molecule?
The TGI was > 100 µM.

And the TGI [23]?
The TGI was > 100 µM.

And the TGI [24]?
Its TGI is > 100 µM.

What about the TGI [25] of the same molecule?
Its TGI is > 100 µM.

And the TGI [26]?
The TGI was > 100 µM.

What about the TGI [27] of the same molecule?
Its TGI is > 100 µM.

And the TGI [28]?
The TGI was > 100 µM.

And the TGI [29]?
Its TGI is > 100 µM.

And the TGI [30]?
The TGI was > 100 µM.

And the TGI [31]?
The TGI was > 100 µM.

What about the TGI [32] of the same molecule?
Its TGI is > 100 µM.

What about the TGI [33] of the same molecule?
Its TGI is > 100 µM.

What about the TGI [34] of the same molecule?
The TGI was > 100 µM.

And the TGI [35]?
Its TGI is > 100 µM.

And the TGI [36]?
The TGI was > 100 µM.

What about the TGI [37] of the same molecule?
The TGI was > 100 µM.

And the TGI [38]?
The TGI was > 100 µM.

What about the TGI [39] of the same molecule?
Its TGI is > 100 µM.

And the TGI [40]?
The TGI was > 100 µM.

What about the TGI [41] of the same molecule?
The TGI was > 100 µM.

What about the TGI [42] of the same molecule?
Its TGI is > 100 µM.

What about the TGI [43] of the same molecule?
The TGI was > 100 µM.

What about the TGI [44] of the same molecule?
The TGI was > 100 µM.

What about the TGI [45] of the same molecule?
The TGI was > 100 µM.

And the TGI [46]?
The TGI was > 100 µM.

What about the TGI [47] of the same molecule?
Its TGI is > 100 µM.

What about the TGI [48] of the same molecule?
The TGI was > 100 µM.

And the TGI [49]?
Its TGI is > 100 µM.

What about the TGI [50] of the same molecule?
The TGI was > 100 µM.

And the TGI [51]?
The TGI was > 100 µM.

What about the TGI [52] of the same molecule?
Its TGI is > 100 µM.

What about the TGI [54] of the same molecule?
The TGI was > 100 µM.

What about the TGI [55] of the same molecule?
The TGI was > 100 µM.

What about the TGI [56] of the same molecule?
Its TGI is > 100 µM.

What about the TGI [57] of the same molecule?
The TGI was > 100 µM.

And the TGI [58]?
The TGI was > 100 µM.

What about the TGI [59] of the same molecule?
Its TGI is > 100 µM.
